US5071875A (Northwestern University, priority 1989, dated 1991)

Assays:
melatonin receptor [1] = experiment: Inhibition of 2-[125I]iodomelatonin binding to chicken retinal membranes; settings: for IC50: read-out: IC50, inhibition of 2-[125I]iodomelatonin binding to chicken retinal membranes, 0° C., 5 hr, in the dark
Procedure: Dubocovich, et al., Proc. Nat'l.
The compounds to be tested were dissolved in 1 mM HCl with 0.1% bovine serum albumin. Binding was initiated by addition of 220-μl aliquots of retinal membranes resuspended in the Tris-HCl buffer to tubes containing 20 μl of test compound or vehicle, and radioligand. […] Reactions were terminated by addition of 5 ml of ice-cold Tris-HCl buffer, and the contents were immediately filtered through glass-fiber filters (Schleicher & Schuell no. 30) soaked in 0.5% (vol/vol) polyethylenimine solution. Each filter was washed twice with 5 ml of the cold buffer. Radioactivity was determined in a gamma counter.

melatonin receptor [2] = biological target: T1, melatonin receptor (Oryctolagus cuniculus, UniProt G1SUP2); experiment: Inhibition of calcium-dependent [3H]dopamine release from rabbit retina (melatonin agonist assay); type: cell-based; settings: for inhibition at 1 µM: 1 μM concentration of test compound, read-out: % Maximal Inhibition of [3H]dopamine release; for IC50: compound added before S2, S-sulpiride 0.1 μM present
T1 construct: Typically, the rabbit retina tissues preincubation with [^3 H]-dopamine for 10 minutes; from tissue; host or cells: rabbit retina (superfused retinal tissue)
T1 sequence (G1SUP2 1-362): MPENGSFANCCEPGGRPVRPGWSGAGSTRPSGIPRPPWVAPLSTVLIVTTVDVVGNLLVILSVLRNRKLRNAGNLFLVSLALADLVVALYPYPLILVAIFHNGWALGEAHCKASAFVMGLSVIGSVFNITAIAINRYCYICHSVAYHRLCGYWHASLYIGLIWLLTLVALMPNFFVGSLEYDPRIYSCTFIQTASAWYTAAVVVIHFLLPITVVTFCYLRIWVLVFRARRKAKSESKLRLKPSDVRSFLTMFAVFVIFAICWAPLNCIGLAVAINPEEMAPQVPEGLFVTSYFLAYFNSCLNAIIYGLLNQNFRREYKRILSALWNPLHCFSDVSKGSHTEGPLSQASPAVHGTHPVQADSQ
Procedure: Accordingly, all experiments were run in the presence of S-sulpiride (0.1 μM) to block D-2 dopamine autoreceptors present in the dopamine amacrine cells of retina.
Thus, the lower the IC50, the greater the agonistic activity.
Assays were performed as described in Dubocovich, J. Pharm. […] Retinal tissues are incubated for 10 min at 37° C. in the presence of 0.1 μM [^3 H]dopamine. The tissue was then washed in Krebs' solution at 37° C. and transferred to individual cylindrical plastic tubes having a thin nylon mesh on the bottom. These plastic tubes were then transferred to individual glass superfusion chambers containing platinum electrodes 30 mm apart. The tissue samples are superfused with Krebs' solution, starting at time equal zero until a leveling off of the spontaneous release of radioactivity occurred (about 60 mins). A time equal 60 mins S1 is applied.
Tritium release, i.e., release of [^3 H]dopamine, was elicited by field stimulation at 3 Hz, 20 mA, 2 msec duration. Field stimulations were applied in each experiment at either 60 (S1) or 100 (S2), min after the end of the incubation with [^3 H]dopamine. Samples of the superfusate were collected before, during, and after the period of stimulation. At the end of each experiment, the retinal tissue contained in each chamber was solubilized and the tritium content remaining in the retinal tissue was determined by liquid scintillaton counting. [drawing 8]
The inhibition of [^3 H]dopamine overflow (the percentage of total tissue radioactivity released by field stimulation above the spontaneous release levels, expressed as the ratio S2 /S1) is plotted as a function of the molar concentrations of the test compound (logarithmic scale).

melatonin receptor [3] = biological target: T1, melatonin receptor; experiment: Antagonism of melatonin-induced inhibition of [3H]dopamine release from rabbit retina; type: cell-based; settings: for shift of the melatonin concentration effect curve: 0.1 μM and 1 μM of test compound, compared with melatonin alone
Procedure: In this example, the test compound is added before the first period of electrical stimulation (S1) and remains present until the end of the experiment.
Typically, the rabbit retina tissues preincubation with [^3 H]-dopamine for 10 minutes is followed by a superfusion with Krebs solution at time equal zero. At time equal 20 minutes the test compound of interest is added. At time equal 60 minutes S1 is applied.
The ratio S2 /S1 can be plotted as a function of the molar concentrations of the test compound used (logarithmic scale).

melatonin receptor [4] = biological target: T1, melatonin receptor; settings: cited from earlier work
melatonin receptor [5] = settings: cited from earlier work
frog skin = settings: cited from earlier work
melatonin receptor [6] = biological target: T1, melatonin receptor; settings: cited from earlier work; remark: listed apart in the source
[7] = test compound 0.1 μM, melatonin 1 nM
[8] = test compound 0.1 μM, melatonin 10 nM
[9] = test compound 1 μM, melatonin 1 nM
[10] = test compound 1 μM, melatonin 10 nM

Row | SMILES | IC50 (melatonin receptor [1]) [nM] | inhibition at 1 µM (melatonin receptor [2]) [%] | IC50 (melatonin receptor [2]) [nM] | further results
1 | COc1cccc2c1CC(NC(=O)C(C)C)CC2 (stereo not shown) [AH 014, 8-methoxy-2-iso-butyramido-tetralin] | 4620 | 80 | 7.94 | –
2 | O=C(CCl)NC1CCc2ccccc2C1 (stereo not shown) [AH 011, 2-chloroacetamido-tetralin] | – | 80 | 1.3 | –
3 | CC(=O)NC1CC(Cc2ccccc2)c2ccccc2C1=O (stereo not shown) [AH 028, 2-Acetamido-4-benzyl-1-tetralone] | 25000 | 60 | 16 | –
4 | CCCC(=O)NC1CCc2cccc(OC)c2C1 (stereo not shown) [AH 013, 8-methoxy-2-n-butyramidotetralin] | 257 | 80 | 1.18 | activity in competitively inhibiting the binding of 2-[125I]iodomelatonin to the melatonin binding site (in words) (melatonin receptor [1]): high activity; melatonin agonist activity (in words) (melatonin receptor [2]): melatonin agonists
5 | CC(=O)NC1CCc2ccccc2C1 (stereo not shown) [AH 005, 2-acetamidotetralin] | 20000 | 50 | 52.2 | –
6 | CCC(=O)NC1CCc2ccccc2C1 (stereo not shown) [AH 006, 2-propionamido-tetralin] | 13000 | 70 | 8.13 | –
7 | COc1cccc2c1CC(NC(=O)C1CC1)CC2 (stereo not shown) [AH 015, 8-methoxy-2-cyclopropanecarbonylamido-tetralin] | 2940 | 80 | 2.51 | melatonin agonist activity (in words) (melatonin receptor [2]): melatonin agonists
8 | CCC(=O)NC1CCc2cccc(OC)c2C1 (stereo not shown) [AH 002, 8-methoxy-2-propionamidotetralin] | – | – | – | activity in competitively inhibiting the binding of 2-[125I]iodomelatonin to the melatonin binding site (in words) (melatonin receptor [1]): high activity
9 | COc1cccc2c1CC(NC(C)=O)CC2 (stereo not shown) [AH 001, 8-methoxy 2-acetamido-tetralin] | – | – | – | activity in competitively inhibiting the binding of 2-[125I]iodomelatonin to the melatonin binding site (in words) (melatonin receptor [1]): high activity
10 | COc1cccc2c1CC(NC(=O)c1ccccc1)CC2 (stereo not shown) [AH 007, 8-methoxy-2-benzoylamido-tetralin] | > 10000 | 40 | 10 | –
11 | CCCC(=O)NC1CCc2ccccc2C1 (stereo not shown) [AH 020, 2-butyramido-tetralin] | 2910 | – | – | –
12 | CC(=O)NC1Cc2ccccc2C(Cc2ccccc2)C1 (stereo not shown) [AH 025, 4-benzyl-2-acetamidotetralin] | 400 | 70 | 4 | activity in competitively inhibiting the binding of 2-[125I]iodomelatonin to the melatonin binding site (in words) (melatonin receptor [1]): high activity; melatonin agonist activity (in words) (melatonin receptor [2]): melatonin agonists
13 | COc1cccc2c1CCC(NC(C)=O)C2 (stereo not shown) [AH 018, 5-methoxy-2-acetamido-tetralin] | 16000 | – | – | –
14 | CCC(=O)NC1Cc2ccccc2C(Cc2ccccc2)C1 (stereo not shown) [AH 027, 4-benzyl-2-propionamido-tetralin] | 790 | 65 | 13 | activity in competitively inhibiting the binding of 2-[125I]iodomelatonin to the melatonin binding site (in words) (melatonin receptor [1]): high activity; melatonin agonist activity (in words) (melatonin receptor [2]): melatonin agonists
15 | CC(=O)NC1Cc2ccccc2C(c2ccccc2)C1 (stereo not shown) [AH 023, 4-phenyl-2-acetamidotetralin] | 630 | – | > 1000 | activity in competitively inhibiting the binding of 2-[125I]iodomelatonin to the melatonin binding site (in words) (melatonin receptor [1]): high activity; antagonism of melatonin-induced inhibition of [3H]dopamine release (in words) (melatonin receptor [3]): antagonize the melatonin-induced inhibition of [^3 H]dopamine release; shift of the melatonin concentration effect curve (melatonin receptor [3]): shift to the right; S2/S1 (melatonin receptor [3]; test compound 0.01 μM, melatonin 0.1 nM): 0.69 ± 0.11; S2/S1 (melatonin receptor [3]; test compound 0.01 μM, melatonin 1 nM): 0.30 ± 0.04; S2/S1 (melatonin receptor [3]; [7]): 0.73 ± 0.04; S2/S1 (melatonin receptor [3]; [8]): 0.37 ± 0.06; S2/S1 (melatonin receptor [3]; test compound 1 μM, melatonin 0.1 nM): 1.02 ± 0.03; S2/S1 (melatonin receptor [3]; [9]): 0.92 ± 0.07; S2/S1 (melatonin receptor [3]; [10]): 0.69 ± 0.03
16 | O=C(CCl)NC1Cc2ccccc2C(Cc2ccccc2)C1 (stereo not shown) [AH 029, 4-benzyl-2-chloroacetamido-tetralin] | – | 70 | 10 | –
17 | O=C(NC1CCc2ccccc2C1)c1ccccc1 (stereo not shown) [AH 019, 2-benzoylamido-tetralin] | > 10000 | – | – | –
18 | COc1ccc2c(c1)CC(NC(C)=O)CC2 (stereo not shown) [AH 008, 7-methoxy-2-acetamido-tetralin] | > 10000 | – | – | –
19 | CCC(=O)NC1Cc2ccccc2C(c2ccccc2)C1 (stereo not shown) [AH 024, 4-phenyl-2-propionamido-tetralin] | 250 | – | > 1000 | activity in competitively inhibiting the binding of 2-[125I]iodomelatonin to the melatonin binding site (in words) (melatonin receptor [1]): high activity; antagonism of melatonin-induced inhibition of [3H]dopamine release (in words) (melatonin receptor [3]): antagonize the melatonin-induced inhibition of [^3 H]dopamine release; shift of the melatonin concentration effect curve (melatonin receptor [3]): shift to the right; S2/S1 (melatonin receptor [3]; test compound 0.1 μM, melatonin 0.1 nM): 1.01 ± 0.07; S2/S1 (melatonin receptor [3]; [7]): 0.76 ± 0.01; S2/S1 (melatonin receptor [3]; [8]): 0.25 ± 0.01; S2/S1 (melatonin receptor [3]; [9]): 0.91 ± 0.06; S2/S1 (melatonin receptor [3]; [10]): 0.61 ± 0.01
20 | COc1cccc2c1CC(NC(=O)Cc1ccccc1)CC2 (stereo not shown) [AH 016, 8-methoxy-2-phenylacetamido-tetralin] | – | 0 | > 1000 | –
21 | O=C(CCl)NC1Cc2ccccc2C(c2ccccc2)C1 (stereo not shown) [AH 026, 4-phenyl-2-chloroacetamido-tetralin] | – | – | > 1000 | –
22 | CC(=O)NCCc1c[nH]c2ccccc12 [N-acetyltryptamine] | – | – | – | melatonin receptor activity in rabbit retina (in words) (melatonin receptor [4]): partial melatonin agonist; melatonin receptor activity in chicken retina (in words) (melatonin receptor [5]): competitive melatonin receptor antagonist; effect on melatonin-induced lightening of α-MSH-induced darkening of frog skin (frog skin): antagonize the melatonin-induced lightening
23 | COc1cccc2c1CC(NC(=O)CCl)CC2 (stereo not shown) [AH 017, 8-methoxy-2-chloroacetamidotetralin] | – | 75 | 0.063 | –
24 | CC(=O)NCCc1c(Cc2ccccc2)[nH]c2ccccc12 [Luzindole, 2-benzyl-N-acetyltryptamine] | – | – | – | effect on spontaneous outflow and calcium-dependent release of [3H]dopamine (melatonin receptor [4]; concentrations up to 10 μM, compound alone): does not modify; antagonism of the ability of melatonin to inhibit [3H]dopamine release (melatonin receptor [6]): antagonize the ability of melatonin to inhibit [^3 H]dopamine release in a competitive fashion
